Laboratory results: patent US6001812A, “Modulating body/cranial hair growth with derivatives of the α-type melanocyte-stimulating hormone” (Societe L'Oreal S.A., priority 1995, dated 1999)
Where a SMILES comes first, the peptide text is derived from it.

Test system: hair follicles
Experiment: Lengthening and survival of hair follicles maintained in vitro
Assay type: cell-based
Set-up: Mean lengthening: unit not given here
Method: Viable in vitro hair follicles were prepared according to the technique described in French Patent Application No. 95-08465, filed Jul. 12, 1995 and assigned to the assignee hereof.
From a scalp biopsy, a rather fine strip of scalp was isolated using a scalpel. The adipose tissue surrounding the follicles was removed with microforceps while avoiding damage to the hair bulb. The follicles were cut out with a scalpel under a microscope in order to separate them from their epidermal and dermal surroundings.
The follicles were then cultured in the wells of Costar-type 24-well plates, at the rate of one follicle per well. Each well contained 0.5 ml of Williams' medium E, to which had been added penicillin and streptomycin to a final concentration of 50 IU/ml, glutamine to 2 mM, bovine insulin to 0.01 mg/ml and hydrocortisone to 0.04 mg/ml.
The follicles were then measured using a microscope equipped with a micrometric eyepiece.
After 24 hours, the follicles were again measured and those which had lengthened by less than 0.3 divisions of the micrometer, corresponding to 0.16 mm, were discarded.
The five (5) following culturing conditions were tested:
Condition A: Complete Williams' medium E, without peptide.
Condition B: Complete Williams' medium E+10 mM Ac-LPV-NH2.
Condition C: Complete Williams' medium E+1 mM Ac-LPV-NH2.
Condition D: Complete Williams' medium E+0.1 mM Ac-LPV-NH2.

[1] = 0.1 mM peptide in complete Williams' medium E, day 0
[2] = 0.1 mM peptide in complete Williams' medium E, day 1
[3] = 0.1 mM peptide in complete Williams' medium E, day 4
[4] = 1 mM peptide in complete Williams' medium E, day 0
[5] = 1 mM peptide in complete Williams' medium E, day 1
[6] = 1 mM peptide in complete Williams' medium E, day 11
[7] = 10 mM peptide in complete Williams' medium E, day 0
[8] = 10 mM peptide in complete Williams' medium E, day 1
[9] = 10 mM peptide in complete Williams' medium E, day 12
[10] = summary of Example 1, versus medium without peptide

CC(=O)N[C@@H](CCCCN)C(=O)N1CCC[C@H]1C(=O)N[C@H](C(N)=O)C(C)C [Acetyl-Lys-Pro-Val-NH2] (Ac-Lys-Pro-Val-NH2)
% Survival [1]: 100% | Mean lengthening [1]: 0.00 | % Survival [2]: 100% | Mean lengthening [2]: 0.37 | % Survival [3]: 100% | Mean lengthening [3]: 1.10 | % Survival (0.1 mM peptide in complete Williams' medium E, day 5): 100% | % Survival (0.1 mM peptide in complete Williams' medium E, day 6): 100% | % Survival (0.1 mM peptide in complete Williams' medium E, day 7): 83% | % Survival (0.1 mM peptide in complete Williams' medium E, day 8): 50% | % Survival (0.1 mM peptide in complete Williams' medium E, day 11): 42% | % Survival (0.1 mM peptide in complete Williams' medium E, day 12): 17% | % Survival [4]: 100% | Mean lengthening [4]: 0.00 | % Survival [5]: 100% | Mean lengthening [5]: 0.38 | % Survival (1 mM peptide in complete Williams' medium E, day 4): 100% | % Survival (1 mM peptide in complete Williams' medium E, day 5): 100% | % Survival (1 mM peptide in complete Williams' medium E, day 6): 100% | % Survival (1 mM peptide in complete Williams' medium E, day 7): 91% | % Survival (1 mM peptide in complete Williams' medium E, day 8): 55% | % Survival [6]: 36% | Mean lengthening [6]: 1.70 | % Survival [7]: 100% | Mean lengthening [7]: 0.00 | % Survival [8]: 100% | Mean lengthening [8]: 0.38 | % Survival (10 mM peptide in complete Williams' medium E, day 4): 100% | % Survival (10 mM peptide in complete Williams' medium E, day 5): 100% | % Survival (10 mM peptide in complete Williams' medium E, day 6): 100% | % Survival (10 mM peptide in complete Williams' medium E, day 7): 100% | % Survival (10 mM peptide in complete Williams' medium E, day 8): 92% | % Survival (10 mM peptide in complete Williams' medium E, day 11): 83% | % Survival [9]: 42% | Mean lengthening [9]: 2.40 | Effect on lengthening of the cultured hair follicles (in words) [10]: promoted the lengthening | Effect on survival time of the cultured hair follicles (in words) [10]: increased their survival time
